PubChem BioAssay (NCI)
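Exposure lasted 48 hours, with cells grown in 96-well plates and compounds tested at five concentrations. GI50 = concentration required for 50% inhibition of growth. TGI denotes the concentration required for complete inhibition of growth.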

Experiments:
Test in all cases: NCI tumour cell line growth inhibition, 48 h
OVCAR-8 ovarian = test system: OVCAR-8 ovarian
ACHN renal = test system: ACHN renal
SF-295 CNS = test system: SF-295 CNS
MOLT-4 leukemia = test system: MOLT-4 leukemia
DLD-1 colon = test system: DLD-1 colon
UO-31 renal = test system: UO-31 renal
SN12C renal = test system: SN12C renal
NCI-H460 lung = test system: NCI-H460 lung
OVCAR-3 ovarian = test system: OVCAR-3 ovarian
SK-OV-3 ovarian = test system: SK-OV-3 ovarian
SF-539 CNS = test system: SF-539 CNS
U251 CNS = test system: U251 CNS
HT29 colon = test system: HT29 colon
IGROV1 ovarian = test system: IGROV1 ovarian
MALME-3M melanoma = test system: MALME-3M melanoma
HL-60(TB) leukemia = test system: HL-60(TB) leukemia
HOP-62 NSCLC = test system: HOP-62 NSCLC
LOX IMVI melanoma = test system: LOX IMVI melanoma
UACC-62 melanoma = test system: UACC-62 melanoma
HCT-15 colon = test system: HCT-15 colon
HCC-2998 colon = test system: HCC-2998 colon
UACC-257 melanoma = test system: UACC-257 melanoma
DMS 114 small cell lung = test system: DMS 114 small cell lung
SR leukemia = test system: SR leukemia
KM12 colon = test system: KM12 colon
SK-MEL-2 melanoma = test system: SK-MEL-2 melanoma
786-0 renal = test system: 786-0 renal
SNB-75 CNS = test system: SNB-75 CNS
TK-10 renal = test system: TK-10 renal
CAKI-1 renal = test system: CAKI-1 renal
EKVX NSCLC = test system: EKVX NSCLC
SNB-19 CNS = test system: SNB-19 CNS
A549 NSCLC = test system: A549 NSCLC
M19-MEL melanoma = test system: M19-MEL melanoma
OVCAR-4 ovarian = test system: OVCAR-4 ovarian
SW-620 colon = test system: SW-620 colon
NCI-H23 lung = test system: NCI-H23 lung
DMS 273 small cell lung = test system: DMS 273 small cell lung
SK-MEL-5 melanoma = test system: SK-MEL-5 melanoma
COLO 205 colon = test system: COLO 205 colon
SF-268 CNS = test system: SF-268 CNS
RPMI-8226 leukemia = test system: RPMI-8226 leukemia
OVCAR-5 ovarian = test system: OVCAR-5 ovarian
K-562 leukemia = test system: K-562 leukemia
HCT-116 colon = test system: HCT-116 colon
CCRF-CEM leukemia = test system: CCRF-CEM leukemia
LXFL 529 NSCLC = test system: LXFL 529 NSCLC
NCI-H226 lung = test system: NCI-H226 lung
NCI-H522 lung = test system: NCI-H522 lung
SK-MEL-28 melanoma = test system: SK-MEL-28 melanoma
A498 renal = test system: A498 renal
M14 melanoma = test system: M14 melanoma
HOP-18 NSCLC = test system: HOP-18 NSCLC
KM20L2 colon = test system: KM20L2 colon
HOP-92 NSCLC = test system: HOP-92 NSCLC
RXF 393 renal = test system: RXF 393 renal
XF 498 CNS = test system: XF 498 CNS
SNB-78 CNS = test system: SNB-78 CNS

CCOC(=O)C(NC(=O)c1[nH]cnc1/N=N/N(C)C)C(C)C (configuration not stated)
TGI (OVCAR-8 ovarian): > 100 µM
TGI (ACHN renal): > 100 µM
TGI (SF-295 CNS): > 100 µM
TGI (MOLT-4 leukemia): > 100 µM
TGI (DLD-1 colon): > 100 µM
TGI (UO-31 renal): > 100 µM
TGI (SN12C renal): > 100 µM
TGI (NCI-H460 lung): > 100 µM
TGI (OVCAR-3 ovarian): > 100 µM
TGI (SK-OV-3 ovarian): > 100 µM
TGI (SF-539 CNS): > 100 µM
TGI (U251 CNS): > 100 µM
TGI (HT29 colon): > 100 µM
TGI (IGROV1 ovarian): > 100 µM
TGI (MALME-3M melanoma): > 100 µM
TGI (HL-60(TB) leukemia): > 100 µM
TGI (HOP-62 NSCLC): > 100 µM
TGI (LOX IMVI melanoma): > 100 µM
TGI (UACC-62 melanoma): > 100 µM
TGI (HCT-15 colon): > 100 µM
TGI (HCC-2998 colon): > 100 µM
TGI (UACC-257 melanoma): > 100 µM
TGI (DMS 114 small cell lung): > 100 µM
TGI (SR leukemia): > 100 µM
TGI (KM12 colon): > 100 µM
TGI (SK-MEL-2 melanoma): > 100 µM
TGI (786-0 renal): > 100 µM
TGI (SNB-75 CNS): > 100 µM
TGI (TK-10 renal): > 100 µM
TGI (CAKI-1 renal): > 100 µM
TGI (EKVX NSCLC): > 100 µM
TGI (SNB-19 CNS): > 100 µM
TGI (A549 NSCLC): > 100 µM
TGI (M19-MEL melanoma): > 100 µM
TGI (OVCAR-4 ovarian): > 100 µM
TGI (SW-620 colon): > 100 µM
TGI (NCI-H23 lung): > 100 µM
TGI (DMS 273 small cell lung): > 100 µM
TGI (SK-MEL-5 melanoma): > 100 µM
TGI (COLO 205 colon): > 100 µM
TGI (SF-268 CNS): > 100 µM
TGI (RPMI-8226 leukemia): > 100 µM
TGI (OVCAR-5 ovarian): > 100 µM
TGI (K-562 leukemia): > 100 µM
TGI (HCT-116 colon): > 100 µM
TGI (CCRF-CEM leukemia): > 100 µM
TGI (LXFL 529 NSCLC): > 100 µM
TGI (NCI-H226 lung): > 100 µM
TGI (NCI-H522 lung): > 100 µM
TGI (SK-MEL-28 melanoma): > 100 µM
TGI (A498 renal): > 100 µM
TGI (M14 melanoma): > 100 µM

O=c1cc(-c2ccccn2)[nH]c2ccc(Cl)cc12
TGI (OVCAR-8 ovarian): > 100 µM
TGI (ACHN renal): > 100 µM
GI50 (SF-295 CNS): 51.5 µM
TGI (SF-295 CNS): > 100 µM
TGI (MOLT-4 leukemia): > 100 µM
TGI (HOP-18 NSCLC): > 100 µM
TGI (DLD-1 colon): > 100 µM
TGI (UO-31 renal): > 100 µM
TGI (SN12C renal): > 100 µM
TGI (NCI-H460 lung): > 100 µM
GI50 (OVCAR-3 ovarian): 63.7 µM
TGI (OVCAR-3 ovarian): > 100 µM
TGI (SK-OV-3 ovarian): > 100 µM
TGI (SF-539 CNS): > 100 µM
TGI (HT29 colon): > 100 µM
TGI (IGROV1 ovarian): > 100 µM
TGI (MALME-3M melanoma): 62.5 µM
TGI (HL-60(TB) leukemia): > 100 µM
TGI (HOP-62 NSCLC): > 100 µM
TGI (LOX IMVI melanoma): > 100 µM
TGI (UACC-62 melanoma): > 100 µM
TGI (HCC-2998 colon): > 100 µM
GI50 (KM20L2 colon): 40 µM
TGI (KM20L2 colon): > 100 µM
TGI (UACC-257 melanoma): > 100 µM
TGI (HOP-92 NSCLC): > 100 µM
GI50 (DMS 114 small cell lung): 13.9 µM
TGI (DMS 114 small cell lung): 49 µM
TGI (SR leukemia): > 100 µM
TGI (KM12 colon): > 100 µM
TGI (786-0 renal): > 100 µM
TGI (SNB-75 CNS): > 100 µM
TGI (TK-10 renal): > 100 µM
TGI (EKVX NSCLC): > 100 µM
TGI (SNB-19 CNS): > 100 µM
TGI (M19-MEL melanoma): > 100 µM
TGI (OVCAR-4 ovarian): > 100 µM
TGI (SW-620 colon): > 100 µM
TGI (NCI-H23 lung): > 100 µM
GI50 (RXF 393 renal): 34 µM
TGI (RXF 393 renal): > 100 µM
TGI (XF 498 CNS): > 100 µM
GI50 (SK-MEL-5 melanoma): 26.6 µM
TGI (SK-MEL-5 melanoma): > 100 µM
TGI (COLO 205 colon): > 100 µM
GI50 (SF-268 CNS): 23.4 µM
TGI (SF-268 CNS): 66.7 µM
TGI (RPMI-8226 leukemia): > 100 µM
TGI (OVCAR-5 ovarian): > 100 µM
TGI (K-562 leukemia): > 100 µM
GI50 (HCT-116 colon): 26 µM
TGI (HCT-116 colon): > 100 µM
TGI (CCRF-CEM leukemia): > 100 µM
TGI (LXFL 529 NSCLC): > 100 µM
GI50 (NCI-H226 lung): 46.5 µM
TGI (NCI-H226 lung): > 100 µM
TGI (NCI-H522 lung): 97.2 µM
TGI (SK-MEL-28 melanoma): > 100 µM
TGI (M14 melanoma): > 100 µM
TGI (SNB-78 CNS): > 100 µM
